SMILES strings stand for the structures. Where a SMILES comes first, the peptide text is derived from it.

For the experiment, the target named is HLA A*3001 (Homo sapiens, UniProt P04439, D140H/D185E/E176W/F33S/G80R/H175R/K168Q/R138E/R41S). In words: biochemical. In kind it is binding.
Sequence of HLA A*3001 (P04439 25-365 limits assumed, stated change not applied): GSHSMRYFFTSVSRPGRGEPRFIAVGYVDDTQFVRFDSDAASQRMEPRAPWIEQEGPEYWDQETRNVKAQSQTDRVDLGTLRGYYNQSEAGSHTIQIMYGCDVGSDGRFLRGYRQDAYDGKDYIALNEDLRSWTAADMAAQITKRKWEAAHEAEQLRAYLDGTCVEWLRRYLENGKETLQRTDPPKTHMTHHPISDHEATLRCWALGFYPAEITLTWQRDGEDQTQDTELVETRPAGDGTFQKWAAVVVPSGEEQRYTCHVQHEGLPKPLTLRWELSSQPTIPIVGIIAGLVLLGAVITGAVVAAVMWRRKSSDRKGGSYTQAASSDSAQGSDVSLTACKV
In the case of `C[C@H](N)C(=O)N[C@H](C(=O)N[C@@H](C)C(=O)N[C@@H](CCCNC(=N)N)C(=O)N[C@@H](CO)C(=O)N[C@@H](CO)C(=O)N1CCC[C@H]1C(=O)N[C@@H](CCC(=O)O)C(=O)N[C@@H](CCCCN)C(=O)O)[C@@H](C)O` [3102.0148] (H-ATARSSPEK-OH), it took 0.58 nM to reach half-maximal inhibition (IC50).
In turn, `CSCC[C@H](N)C(=O)N[C@H](C(=O)N[C@@H](CCCNC(=N)N)C(=O)N[C@@H](CC(C)C)C(=O)N1CCC[C@H]1C(=O)N[C@@H](Cc1ccc(O)cc1)C(=O)N[C@@H](CCCCN)C(=O)N[C@@H](CC(=O)O)C(=O)N[C@@H](C)C(=O)O)C(C)C` [3102.0149] (H-MVRLPYKDA-OH) yielded an IC50 of 0.76 nM.
The molecule `CC[C@H](C)[C@H](NC(=O)[C@H](CC(N)=O)NC(=O)[C@@H](NC(=O)[C@H](CC(N)=O)NC(=O)[C@H](CCCCN)NC(=O)[C@H](CO)NC(=O)[C@@H](N)CCCCN)[C@@H](C)CC)C(=O)N[C@@H](CCC(=O)O)C(=O)N[C@H](C(=O)O)C(C)C` [3102.0150] (H-KSKNINIEV-OH) returned an IC50 of 0.32 nM.
The value for `CC[C@H](C)[C@H](NC(=O)[C@H](CC(=O)O)NC(=O)[C@H](CC(C)C)NC(=O)[C@@H](NC(=O)[C@@H](N)CCCCN)[C@@H](C)O)C(=O)N[C@@H](CO)C(=O)N[C@@H](CO)C(=O)N[C@@H](Cc1ccccc1)C(=O)N[C@@H](Cc1ccc(O)cc1)C(=O)O` [3102.0151] (H-KTLDISSFY-OH) was 23 nM; that for `CC(C)[C@H](NC(=O)[C@H](CO)NC(=O)[C@@H](NC(=O)[C@H](Cc1ccc(O)cc1)NC(=O)[C@@H](NC(=O)[C@H](Cc1ccccc1)NC(=O)[C@H](CCCCN)NC(=O)[C@H](CO)NC(=O)[C@H](C)N)C(C)C)C(C)C)C(=O)O` [3102.0152] (H-ASKFVYVSV-OH) was 3.1 nM; that for `CC[C@H](C)[C@H](NC(=O)[C@H](CCCCN)NC(=O)[C@H](CO)NC(=O)[C@@H](NC(=O)[C@@H](NC(=O)[C@H](CCCCN)NC(=O)[C@H](CCCNC(=N)N)NC(=O)[C@@H](NC(=O)[C@@H](N)CCCCN)C(C)C)[C@@H](C)CC)[C@@H](C)CC)C(=O)O` [3102.0153] (H-KVRKIISKI-OH) was 27 nM.
For `CC(C)C[C@H](NC(=O)[C@H](Cc1ccc(O)cc1)NC(=O)[C@H](CCCNC(=N)N)NC(=O)[C@@H](NC(=O)[C@@H](N)CCCNC(=N)N)C(C)C)C(=O)N[C@H](C(=O)N[C@@H](CCCNC(=N)N)C(=O)N[C@@H](CC(N)=O)C(=O)N[C@@H](Cc1ccc(O)cc1)C(=O)O)[C@@H](C)O` [3102.0155] (H-RVRYLTRNY-OH) the value was 5.6 nM.
For `CC(C)C[C@H](NC(=O)[C@H](Cc1ccccc1)NC(=O)[C@@H](NC(=O)CNC(=O)[C@H](Cc1ccc(O)cc1)NC(=O)[C@H](CCCNC(=N)N)NC(=O)[C@H](Cc1ccc(O)cc1)NC(=O)[C@@H](N)CCCCN)[C@@H](C)O)C(=O)N[C@@H](Cc1ccc(O)cc1)C(=O)O` [3102.0156] (H-KYRYGTFLY-OH) the value was 1.1 nM; for `CC[C@H](C)[C@H](NC(=O)[C@@H](N)CO)C(=O)N[C@@H](CCCNC(=N)N)C(=O)N[C@@H](CCCNC(=N)N)C(=O)N[C@@H](CC(N)=O)C(=O)N[C@@H](CC(C)C)C(=O)N[C@@H](C)C(=O)N[C@@H](CC(C)C)C(=O)N[C@@H](CCCCN)C(=O)O` [3102.0157] (H-SIRRNLALK-OH), 12 nM.
Take `CC(C)C[C@H](NC(=O)[C@H](CC(C)C)NC(=O)[C@H](CCCNC(=N)N)NC(=O)[C@@H](NC(=O)[C@@H](N)CO)C(C)C)C(=O)N[C@@H](CC(N)=O)C(=O)N[C@@H](Cc1ccc(O)cc1)C(=O)N[C@@H](Cc1ccccc1)C(=O)N[C@@H](CCCCN)C(=O)O` [3102.0158] (H-SVRLLNYFK-OH): 0.24 nM corresponded to half-maximal inhibition (IC50).
The value for `CC[C@H](C)[C@H](NC(=O)[C@H](CO)NC(=O)[C@@H](NC(=O)[C@@H](N)CCCCN)C(C)C)C(=O)N[C@@H](CC(C)C)C(=O)N[C@@H](Cc1c[nH]cn1)C(=O)N1CCC[C@H]1C(=O)N[C@H](C(=O)N[C@@H](CO)C(=O)O)[C@@H](C)CC` [3102.0159] (H-KVSILHPIS-OH) was 11 nM.
For `CC[C@H](C)[C@H](NC(=O)[C@H](C)N)C(=O)N[C@@H](CCCNC(=N)N)C(=O)N[C@@H](C)C(=O)NCC(=O)N[C@@H](Cc1ccc(O)cc1)C(=O)N[C@@H](CO)C(=O)N[C@H](C(=O)N[C@H](C(=O)O)C(C)C)[C@@H](C)CC` [3102.0160] (H-AIRAGYSIV-OH) the value was 1.4 nM; for `CC(C)C[C@H](NC(=O)[C@H](CC(N)=O)NC(=O)[C@H](CC(C)C)NC(=O)[C@H](Cc1c[nH]c2ccccc12)NC(=O)[C@H](CO)NC(=O)[C@H](CC(N)=O)NC(=O)[C@H](CCCCN)NC(=O)[C@H](C)NC(=O)[C@@H](N)CO)C(=O)O` [3102.0164] (H-SAKNSWLNL-OH), 0.57 nM; for `CC[C@H](C)[C@H](NC(=O)[C@@H]1CCCN1C(=O)[C@H](CCCCN)NC(=O)[C@@H](NC(=O)[C@@H](N)CCCNC(=N)N)[C@@H](C)O)C(=O)N[C@@H](CO)C(=O)N[C@@H](CCSC)C(=O)N[C@@H](Cc1ccc(O)cc1)C(=O)N[C@@H](Cc1ccccc1)C(=O)O` [3102.0165] (H-RTKPISMYF-OH), 0.6 nM.
As to `CC[C@H](C)[C@H](NC(=O)[C@H](CO)NC(=O)[C@@H](NC(=O)[C@H](CCC(N)=O)NC(=O)[C@H](CCCCN)NC(=O)[C@@H](NC(=O)[C@@H](N)CCCNC(=N)N)C(C)C)[C@@H](C)CC)C(=O)N[C@@H](CO)C(=O)N[C@H](C(=O)O)[C@@H](C)O` [3102.0166] (H-RVKQISIST-OH), the half-inhibitory concentration (IC50) stood at 0.37 nM.
The molecule `CC(C)C[C@H](NC(=O)[C@H](CO)NC(=O)[C@@H]1CCCN1C(=O)[C@H](CC(C)C)NC(=O)[C@H](Cc1ccc(O)cc1)NC(=O)[C@H](CCCNC(=N)N)NC(=O)[C@@H](NC(=O)[C@@H](N)CCCNC(=N)N)[C@@H](C)O)C(=O)N[C@H](C(=O)O)C(C)C` [3102.0167] (H-RTRYLPSLV-OH) came in with a half-inhibitory concentration (IC50) of 0.49 nM.
The value for `C[C@@H](O)[C@H](N)C(=O)N[C@H](C(=O)N[C@@H](CCCCN)C(=O)N[C@@H](CC(=O)O)C(=O)N[C@@H](Cc1ccc(O)cc1)C(=O)N[C@@H](Cc1ccccc1)C(=O)N[C@@H](CO)C(=O)N[C@@H](Cc1ccccc1)C(=O)N[C@@H](CCCCN)C(=O)O)[C@@H](C)O` [3102.0168] (H-TTKDYFSFK-OH) was 1.2 nM; that for `CC[C@H](C)[C@H](NC(=O)[C@@H](NC(=O)[C@@H](N)CCCNC(=N)N)[C@@H](C)O)C(=O)N[C@@H](CS)C(=O)N[C@H](C(=O)N[C@@H](CC(C)C)C(=O)N1CCC[C@H]1C(=O)N[C@@H](Cc1ccc(O)cc1)C(=O)N[C@@H](CC(C)C)C(=O)O)[C@@H](C)O` [3102.0170] (H-RTICTLPYL-OH) was 0.74 nM.
For `CC(C)C[C@H](NC(=O)[C@H](Cc1ccc(O)cc1)NC(=O)[C@H](CO)NC(=O)[C@H](CO)NC(=O)[C@H](CO)NC(=O)[C@@H](NC(=O)[C@@H](N)CO)[C@@H](C)O)C(=O)N[C@@H](Cc1ccc(O)cc1)C(=O)N[C@@H](C)C(=O)O` [3102.0171] (H-STSSSYLYA-OH) the value was 13 nM; for `CSCC[C@H](NC(=O)[C@H](CCCCN)NC(=O)[C@H](CCCCN)NC(=O)[C@H](Cc1ccc(O)cc1)NC(=O)[C@H](CCCNC(=N)N)NC(=O)[C@H](C)NC(=O)[C@@H](N)CCCNC(=N)N)C(=O)N[C@@H](CC(C)C)C(=O)N[C@@H](CCCCN)C(=O)O` [3102.0172] (H-RARYKKMLK-OH), 1 nM.
The value for `CSCC[C@H](N)C(=O)N[C@@H](CC(C)C)C(=O)N[C@@H](CCCNC(=N)N)C(=O)N[C@@H](Cc1ccccc1)C(=O)N[C@@H](C)C(=O)N[C@@H](CC(N)=O)C(=O)N1CCC[C@H]1C(=O)N[C@@H](CC(C)C)C(=O)N[C@@H](CO)C(=O)O` [3102.0173] (H-MLRFANPLS-OH) was 0.17 nM; that for `CSCC[C@H](NC(=O)[C@H](CCC(=O)O)NC(=O)[C@H](CO)NC(=O)[C@H](CC(C)C)NC(=O)[C@H](CCCNC(=N)N)NC(=O)[C@@H](NC(=O)[C@@H](N)CCCCN)[C@@H](C)O)C(=O)N[C@@H](CC(C)C)C(=O)N[C@@H](CO)C(=O)O` [3102.0174] (H-KTRLSEMLS-OH) was 0.45 nM.
With `CC(C)[C@H](NC(=O)[C@H](CO)NC(=O)[C@H](CCCNC(=N)N)NC(=O)[C@H](Cc1ccccc1)NC(=O)[C@H](CCCNC(=N)N)NC(=O)[C@H](Cc1ccccc1)NC(=O)[C@@H](N)CCCNC(=N)N)C(=O)N[C@@H](Cc1ccc(O)cc1)C(=O)NCC(=O)O` [3102.0175] (H-RFRFRSVYG-OH), the IC50 worked out at 0.36 nM.
In turn, `C[C@H](NC(=O)[C@H](C)NC(=O)[C@H](CCCCN)NC(=O)CNC(=O)[C@@H](N)CCCCN)C(=O)N[C@@H](C)C(=O)N[C@@H](Cc1ccccc1)C(=O)N[C@@H](C)C(=O)N[C@@H](CCCCN)C(=O)O` [3102.0176] (H-KGKAAAFAK-OH) gave a concentration for half-maximal inhibition (IC50) of 3.1 nM.
For `CC(C)C[C@H](NC(=O)[C@H](C)NC(=O)[C@@H](N)CO)C(=O)N[C@@H](Cc1ccc(O)cc1)C(=O)N[C@@H](CO)C(=O)N[C@@H](Cc1ccc(O)cc1)C(=O)N[C@@H](C)C(=O)N[C@@H](CO)C(=O)N[C@@H](C)C(=O)O` [3102.0177] (H-SALYSYASA-OH) the value was 37 nM; for `CC(C)C[C@H](NC(=O)[C@H](CO)NC(=O)[C@H](CC(C)C)NC(=O)[C@H](CS)NC(=O)[C@H](CCCNC(=N)N)NC(=O)[C@H](CO)NC(=O)[C@@H](N)CS)C(=O)N[C@@H](Cc1ccccc1)C(=O)N[C@@H](Cc1ccc(O)cc1)C(=O)O` [3102.0178] (H-CSRCLSLFY-OH), 22 nM.
For `CC(C)C[C@H](NC(=O)[C@H](C)NC(=O)[C@H](Cc1ccc(O)cc1)NC(=O)[C@H](CCCNC(=N)N)NC(=O)[C@@H](NC(=O)[C@@H](N)CC(C)C)[C@@H](C)O)C(=O)N[C@@H](Cc1c[nH]cn1)C(=O)NCC(=O)N[C@@H](CCCCN)C(=O)O` [3102.0179] (H-LTRYALHGK-OH) the value was 0.25 nM.
The value for `CC[C@H](C)[C@H](NC(=O)[C@@H](NC(=O)[C@H](CO)NC(=O)[C@H](CCCNC(=N)N)NC(=O)[C@H](CC(C)C)NC(=O)[C@H](CO)NC(=O)[C@@H](N)CCSC)[C@@H](C)O)C(=O)N[C@H](C(=O)N[C@@H](CCCCN)C(=O)O)[C@@H](C)CC` [3102.0180] (H-MSLRSTIIK-OH) was 37 nM; that for `CC(C)C[C@H](NC(=O)[C@H](CC(C)C)NC(=O)[C@H](Cc1ccc(O)cc1)NC(=O)[C@@H](NC(=O)[C@H](C)NC(=O)[C@H](CCCCN)NC(=O)[C@@H](NC(=O)[C@@H](N)C(C)C)C(C)C)[C@@H](C)O)C(=O)N[C@@H](CCCCN)C(=O)O` [3102.0181] (H-VVKATYLLK-OH) was 0.32 nM.

The record behind these values is publication PMC2248166, “Quantitative peptide binding motifs for 19 human and mouse MHC class I molecules derived using positional scanning combinatorial peptide libraries” (Immunome Research, 2008).
